Counter-ions that a name gives are not always drawn.
Assay: collision cross section in nitrogen (drift tube, single-field); higher = larger gas-phase ion size
[1] = ion type: [M+H], ion source: ESI, ion mode: Positive
[2] = ion type: [M-H], ion source: ESI, ion mode: Negative
[3] = ion type: [M+H], ion source: APCI, ion mode: Positive
[4] = ion type: [M+], ion source: APCI, ion mode: Positive
[5] = ion type: [M+Na], ion source: ESI, ion mode: Positive
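Also: chemical standards at 10 µM analysed by drift tube IMS-QTOF MS in about 3.95 torr nitrogen, mean of duplicate injections differing ≤1%, mass error below 10 ppm.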

Structure (SMILES) | collision cross section in nitrogen [1] | collision cross section in nitrogen [2] | collision cross section in nitrogen [3] | collision cross section in nitrogen [4] | collision cross section in nitrogen [5]
O=S(=O)(O)c1cc(Nc2nc(Nc3ccccc3)nc(N(CCO)CCO)n2)ccc1C=Cc1ccc(Nc2nc(Nc3ccccc3)nc(N(CCO)CCO)n2)cc1S(=O)(=O)O [C.I. Fluorescent Brightener 28, disodium salt] | 307.5 Å² | 282.8 Å² | – | – | –
CC(=O)Nc1ccc(N=Nc2c(S(=O)(=O)O)cc3cc(S(=O)(=O)O)cc(NC(C)=O)c3c2O)cc1 [C.I. Food Red 11] | – | 231.8 Å² | – | – | –
Cc1ccc([N+](=O)[O-])cc1N=Nc1c(O)c(C(=O)Nc2ccccc2)cc2ccccc12 [C.I. Pigment Red 22] | – | 207 Å² | – | – | –
Cc1cc(N=Nc2c(O)ccc3ccccc23)c(S(=O)(=O)O)cc1Cl [C.I. Pigment Red 53] | – | 187.2 Å² | – | – | –
Cc1ccc2[nH]c3cc4c(=O)c5cc(C)ccc5[nH]c4cc3c(=O)c2c1 [C.I. Pigment Red 122] | – | 185.7 Å² | 183.4 Å² | – | –
CC(=O)C(=NNc1ccc(-c2ccc(NN=C(C(C)=O)C(=O)Nc3ccc(C)cc3C)c(Cl)c2)cc1Cl)C(=O)Nc1ccc(C)cc1C [C.I. Pigment Yellow 13] | – | – | 238.9 Å² | 238.3 Å² | –
Cc1ccc(N=Nc2c(O)ccc3ccccc23)c(C)c1 [C.I. Solvent Orange 7] | 166.8 Å² | – | 163.6 Å² | – | –
CCN(CC)c1ccc2c(c1)Oc1cc(N(CC)CC)ccc1C21OC(=O)c2ccccc21 [C.I. Solvent Red 49] | 218.5 Å² | – | 217.9 Å² | – | 230.2 Å²
O=C1OC2(c3ccccc31)c1ccc(O)c(Br)c1Oc1c2ccc(O)c1Br [C.I. Solvent Red 72] | 185 Å² | 190.5 Å² | 186.2 Å² | – | 205.5 Å²
COc1ccc(OC)c(N=Nc2c(O)ccc3ccccc23)c1 [C.I. Solvent Red 80] | 171.6 Å² | 177.5 Å² | 171.6 Å² | – | –
O=C1OC2(c3ccccc31)c1cc(I)c(O)c(I)c1Oc1c2cc(I)c(O)c1I [C.I. Solvent Red 140] | 211.3 Å² | 218.2 Å² | 211.8 Å² | – | –
Nc1ccc(N=Nc2ccccc2)cc1 [C.I. Solvent Yellow 1] | 146.9 Å² | 145.4 Å² | 146.1 Å² | – | –
Oc1ccc2ccccc2c1N=Nc1ccccc1 [C.I. Solvent Yellow 14] | – | 160.1 Å² | 156.9 Å² | – | –
CCN(CC)c1ccc(N=Nc2ccccc2)cc1 [C.I. Solvent Yellow 56] | 165.9 Å² | – | 165.9 Å² | – | –
COc1ccc2sc(C(=O)Nc3nnn[nH]3)c(OC(C)C)c2c1 [CI-959] | – | 178.6 Å² | – | – | 190.1 Å²
Cc1cc2c3c(c1)C(c1ccccc1)=N[C@@H](NC(=O)c1ccncc1)C(=O)N3CC2 [CI-1018] | 200.9 Å² | 195 Å² | 201.9 Å² | – | 210.1 Å²
Cc1cc(SC2=C(O)C[C@@](CCc3ccc(N)cc3)(C(C)C)OC2=O)c(C(C)(C)C)cc1CO [CI-1029] | – | 214.2 Å² | – | – | 210.5 Å²
Clc1ccc(-c2nc3sccn3c2/C=N/OCc2ccc(Cl)c(Cl)c2)cc1 [CITCO] | 200.2 Å² | 199 Å² | 200.6 Å² | – | –
O=C1NS(=O)(=O)c2ccccc21 [Calcium saccharin hydrate] | – | 130.5 Å² | – | – | –
CCOc1nc2cccc(C(=O)OC(C)OC(=O)OC3CCCCC3)c2n1Cc1ccc(-c2ccccc2-c2nnn[nH]2)cc1 (stereo not given) [Candesartan cilexetil] | 242.2 Å² | 244 Å² | 241.9 Å² | – | 252.1 Å²

Structure (SMILES) | collision cross section in nitrogen [1] | collision cross section in nitrogen [2] | collision cross section in nitrogen [3] | collision cross section in nitrogen [4] | collision cross section in nitrogen [5]
COCCOC[C@H](CC1(C(=O)N[C@H]2CC[C@@H](C(=O)O)CC2)CCCC1)C(=O)Oc1ccc2c(c1)CCC2 [Candoxatril] | 224.4 Å² | 226.4 Å² | 224.2 Å² | – | 222.5 Å²
COc1cc(CNC(=O)CCCC/C=C/C(C)C)ccc1O [Capsaicin] | 182 Å² | 177.8 Å² | – | – | 173 Å²
CC(=O)c1ccc2c(c1)[C@H](NC(=O)c1ccc(F)cc1)[C@@H](O)C(C)(C)O2 [Carabersat] | 183.9 Å² | 186 Å² | 184.1 Å² | – | 194.4 Å²
NC(=O)N1c2ccccc2C=Cc2ccccc21 [Carbamazepine] | 150.1 Å² | – | 150.5 Å² | – | 161.1 Å²
c1ccc2c(c1)[nH]c1ccccc12 [Carbazole] | – | 132.9 Å² | – | 130.2 Å² | –
COC(=O)Nc1nc2ccccc2[nH]1 [Carbendazim] | 139 Å² | – | 138.7 Å² | – | –
CCNC(=O)[C@@H](C)OC(=O)Nc1ccccc1 [Carbetamide] | – | – | – | – | 167.4 Å²
CCOC(=O)n1ccn(C)c1=S [Carbimazole] | – | – | – | – | 148 Å²
CNC(=O)Oc1cccc2c1OC(C)(C)C2 [Carbofuran] | – | – | – | – | 157.8 Å²
N#CC(C#N)=NNc1cccc(Cl)c1 [Carbonyl cyanide chlorophenylhydrazone] | 142.8 Å² | – | – | – | –
CCCCN(CCCC)SN(C)C(=O)Oc1cccc2c1OC(C)(C)C2 [Carbosulfan] | 188.3 Å² | – | 188.3 Å² | – | 204.7 Å²
CC1=C(C(=O)Nc2ccccc2)SCCO1 [Carboxin] | 153 Å² | 155.8 Å² | 151.4 Å² | – | 165.7 Å²
CCCCNC(=O)NS(=O)(=O)c1ccc(N)cc1 [Carbutamide] | – | 165 Å² | – | – | 175.6 Å²
CCOC(=O)C(Cl)Cc1cc(-n2nc(C)n(C(F)F)c2=O)c(F)cc1Cl (stereo not given) [Carfentrazone-ethyl] | 180.3 Å² | – | – | – | 187.9 Å²
CC(C)c1ccc(C(=O)N=C(N)N)cc1S(C)(=O)=O [Cariporide mesylate] | 173.6 Å² | 169.3 Å² | 175.1 Å² | – | 178.2 Å²
CCCC(C)(COC(N)=O)COC(=O)NC(C)C (stereo not given) [Carisoprodol] | – | – | – | – | 172.2 Å²
Cc1c(C(=O)O)c(O)cc2c1C(=O)c1c(O)c([C@@H]3O[C@H](CO)[C@@H](O)[C@H](O)[C@H]3O)c(O)c(O)c1C2=O [Carminic acid] | 209.1 Å² | 208.9 Å² | – | – | 217.8 Å²
CC1C(C)(C)C2=C(C(=O)CCC2)C1(C)C (stereo not given) [Cashmeran] | – | 154.6 Å² | – | – | –
Cc1ccc(-c2cc(C(F)(F)F)nn2-c2ccc(S(N)(=O)=O)cc2)cc1 [Celecoxib] | 187.3 Å² | 190.8 Å² | – | – | –
O=C(O)COCCN1CCN(C(c2ccccc2)c2ccc(Cl)cc2)CC1 (stereo not given) [Cetirizine hydrochloride (1:2)] | 200.3 Å² | 195 Å² | 200 Å² | – | 195.6 Å²

— the supplement of paper PMC12317010
